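Values below derive from 48-hour exposures of cells grown in 96-well plates, with endpoints linearly interpolated between the two concentrations bracketing the appropriate inhibition level. TGI is the concentration that stops growth completely.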
Key:
Test in all cases: NCI tumour cell line growth inhibition, 48 h
[1] = tested on: T-47D breast
[2] = tested on: SK-MEL-2 melanoma
[3] = tested on: BT-549 breast
[4] = tested on: UACC-62 melanoma
[5] = tested on: SW-620 colon
[6] = tested on: OVCAR-4 ovarian
[7] = tested on: MDA-MB-435
[8] = tested on: MCF7 breast
[9] = tested on: A549 NSCLC
[10] = tested on: SN12C renal
[11] = tested on: HT29 colon
[12] = tested on: ACHN renal
[13] = tested on: KM12 colon
[14] = tested on: HCC-2998 colon
[15] = tested on: RPMI-8226 leukemia
[16] = tested on: SNB-19 CNS
[17] = tested on: MALME-3M melanoma
[18] = tested on: COLO 205 colon
[19] = tested on: 786-0 renal
[20] = tested on: UO-31 renal
[21] = tested on: SK-OV-3 ovarian
[22] = tested on: M14 melanoma
[23] = tested on: K-562 leukemia
[24] = tested on: NCI-H522 lung
[25] = tested on: UACC-257 melanoma
[26] = tested on: EKVX NSCLC
[27] = tested on: SK-MEL-28 melanoma
[28] = tested on: U251 CNS
[29] = tested on: HCT-15 colon
[30] = tested on: DU-145 prostate
[31] = tested on: SF-295 CNS
[32] = tested on: MDA-MB-231 breast
[33] = tested on: RXF 393 renal
[34] = tested on: SF-268 CNS
[35] = tested on: NCI-H226 lung
[36] = tested on: TK-10 renal
[37] = tested on: HOP-92 NSCLC
[38] = tested on: SR leukemia
[39] = tested on: OVCAR-3 ovarian
[40] = tested on: OVCAR-8 ovarian
[41] = tested on: NCI-H23 lung
[42] = tested on: MOLT-4 leukemia
[43] = tested on: PC-3 prostate
[44] = tested on: A498 renal
[45] = tested on: SK-MEL-5 melanoma
[46] = tested on: SNB-75 CNS
[47] = tested on: LOX IMVI melanoma
[48] = tested on: HL-60(TB) leukemia
[49] = tested on: IGROV1 ovarian
[50] = tested on: NCI-H460 lung
[51] = tested on: OVCAR-5 ovarian
[52] = tested on: HOP-62 NSCLC
[53] = tested on: CCRF-CEM leukemia
[54] = tested on: MDA-N
[55] = tested on: CAKI-1 renal
[56] = tested on: HCT-116 colon
[57] = tested on: NCI/ADR-RES ovarian
[58] = tested on: HS 578T breast
[59] = tested on: SF-539 CNS

Cc1c(S(=O)(=O)O)ccc(N=Nc2c(O)c(C(=O)O)cc3ccccc23)c1Cl
TGI [1]: > 100 µM
TGI [2]: > 100 µM
TGI [3]: > 100 µM
TGI [4]: > 100 µM
TGI [5]: > 100 µM
TGI [6]: > 100 µM
TGI [7]: > 100 µM
TGI [8]: > 100 µM
TGI [9]: > 100 µM
TGI [10]: > 100 µM
TGI [11]: > 100 µM
TGI [12]: > 100 µM
TGI [13]: > 100 µM
TGI [14]: > 100 µM
TGI [15]: > 100 µM
TGI [16]: > 100 µM
TGI [17]: > 100 µM
TGI [18]: > 100 µM
TGI [19]: > 100 µM
TGI [20]: > 100 µM
TGI [21]: > 100 µM
TGI [22]: > 100 µM
TGI [23]: > 100 µM
TGI [24]: > 100 µM
TGI [25]: > 100 µM
TGI [26]: > 100 µM
TGI [27]: > 100 µM
TGI [28]: > 100 µM
TGI [29]: > 100 µM
TGI [30]: > 100 µM
TGI [31]: > 100 µM
TGI [32]: > 100 µM
TGI [33]: > 100 µM
TGI [34]: > 100 µM
TGI [35]: > 100 µM
TGI [36]: > 100 µM
TGI [37]: > 100 µM
TGI [38]: > 90.2 µM
TGI [39]: > 100 µM
TGI [40]: > 100 µM
TGI [41]: > 100 µM
TGI [42]: > 100 µM
TGI [43]: > 100 µM
TGI [44]: > 100 µM
TGI [45]: > 100 µM
TGI [46]: > 100 µM
TGI [47]: > 100 µM
TGI [48]: > 100 µM
TGI [49]: > 100 µM
TGI [50]: > 100 µM
TGI [51]: > 100 µM
TGI [52]: > 100 µM
TGI [53]: > 100 µM
TGI [54]: > 100 µM
TGI [55]: > 100 µM
TGI [56]: > 100 µM
TGI [57]: > 100 µM
TGI [58]: > 100 µM

CN(C)CCCn1c(Cc2ccc(Cl)cc2)nc2cc(C(F)(F)F)ccc21
TGI [1]: 27.2 µM
TGI [2]: 31 µM
TGI [3]: 32.4 µM
TGI [4]: 31.2 µM
TGI [5]: > 57.8 µM
TGI [6]: 27.6 µM
TGI [7]: 26.6 µM
TGI [8]: 27.6 µM
TGI [9]: 32.8 µM
TGI [10]: 29.4 µM
TGI [11]: 29.8 µM
TGI [12]: 26 µM
TGI [13]: 28.1 µM
TGI [14]: 3.85 µM
TGI [15]: > 100 µM
TGI [16]: 30.8 µM
TGI [17]: 24 µM
TGI [18]: 29.3 µM
TGI [19]: 27 µM
TGI [20]: 1 µM
TGI [21]: 28.2 µM
TGI [22]: 25.6 µM
TGI [23]: > 32.5 µM
TGI [24]: 28.1 µM
TGI [25]: 30.1 µM
TGI [26]: 32.7 µM
TGI [27]: 33.5 µM
TGI [28]: 28.6 µM
TGI [29]: 32.8 µM
TGI [30]: 27.2 µM
TGI [31]: 31.4 µM
TGI [32]: 26.5 µM
TGI [33]: 22.7 µM
TGI [34]: 29.1 µM
TGI [35]: 36.4 µM
TGI [36]: 29.6 µM
TGI [37]: 22.9 µM
TGI [38]: > 100 µM
TGI [39]: 27.6 µM
TGI [40]: 33.4 µM
TGI [41]: 31.4 µM
TGI [59]: 32.2 µM
TGI [42]: 34.5 µM
TGI [43]: 29 µM
TGI [44]: 25.5 µM
TGI [45]: 32.5 µM
TGI [47]: 29.7 µM
TGI [48]: 61.9 µM
TGI [49]: 27.3 µM
TGI [50]: 26 µM
TGI [51]: 32.5 µM
TGI [52]: 28.8 µM
TGI [53]: > 43.7 µM
TGI [54]: 25.4 µM
TGI [55]: 27.3 µM
TGI [56]: 25 µM
TGI [57]: 33.6 µM
TGI [58]: 33.6 µM

CC1=CC[C@H](C(C)C)C(C(O)[C@@H](C)O[Si](c2ccccc2)(c2ccccc2)C(C)(C)C)C1=O (stereo not given in full)
TGI [1]: 46.1 µM
TGI [2]: 32 µM
TGI [3]: 37.5 µM
TGI [4]: 33.6 µM
TGI [5]: 65.5 µM
TGI [6]: 41 µM
TGI [7]: 51.3 µM
TGI [8]: 44.2 µM
TGI [9]: 38.4 µM
TGI [10]: 37.9 µM
TGI [11]: 31.7 µM
TGI [12]: 31.1 µM
TGI [13]: 48.3 µM
TGI [14]: 29 µM
TGI [15]: 48 µM
TGI [16]: 33.5 µM
TGI [17]: 52.8 µM
TGI [18]: 47.6 µM
TGI [19]: 32.7 µM
TGI [20]: 31.7 µM
TGI [21]: 79.7 µM
TGI [22]: 32.6 µM
TGI [23]: > 100 µM
TGI [24]: 37.6 µM
TGI [25]: 31.5 µM
TGI [26]: 28.9 µM
TGI [27]: > 100 µM
TGI [28]: 31.8 µM
TGI [29]: 36.4 µM
TGI [30]: 65.4 µM
TGI [31]: 33.1 µM
TGI [32]: 32.4 µM
TGI [33]: 30.8 µM
TGI [34]: 54.8 µM
TGI [35]: 44 µM
TGI [36]: 31.7 µM
TGI [37]: 37.9 µM
TGI [38]: > 100 µM
TGI [39]: 35.5 µM
TGI [40]: 54.1 µM
TGI [41]: 40.2 µM
TGI [59]: 44.1 µM
TGI [42]: > 100 µM
TGI [43]: 33.6 µM
TGI [44]: 35.5 µM
TGI [45]: 33.7 µM
TGI [46]: 54.4 µM
TGI [47]: 45.7 µM
TGI [48]: 42.6 µM
TGI [49]: 64.8 µM
TGI [50]: 37.2 µM
TGI [51]: 36.2 µM
TGI [52]: 47.6 µM
TGI [53]: 63.8 µM
TGI [54]: 53 µM
TGI [55]: 36.2 µM
TGI [56]: 28.7 µM
TGI [57]: 38.1 µM
TGI [58]: 67 µM
